One data set relates to pylorus ligature ulcer. The experiment in a line: Protective action on pylorus ligature ulcer formation. The data set is classed as in vivo, Sprague-Dawley strain male rats. The settings on record: for Death Rate / Perforating Ulcers / Ulcer Index (mean value ± standard deviation) / Percent Inhibition: in the duodenum; for Ulcer Index (mean value ± standard deviation): scale 0 to 5, control 4.0 ± 1.3; for Percent Inhibition: ulcer index.

The subject of a further data set is stress-induced ulcer. The data set can be described thus: Inhibitory action on stress-induced ulcer formation. The data set is classed as in vivo, Sprague-Dawley strain male rats. Particulars: oral; for dose dependence of inhibiting action on ulcer formation: 30 mg/kg and above; for Ulcer Index (mean value ± standard deviation): Ulcer Index = a + b/10, control 6.1 ± 2.3; for Number of Ulcers/Stomach, 3 mm or larger: control 1.3; for Number of Ulcers/Stomach, up to 3 mm: control 45.6; for Percent Inhibition: ulcer index. The protocol: Sprague-Dawley strain male rats weighing 200-250 g were deprived of food for 24 hours, and then laid down on their backs on a screen and fixed by fastening their limbs with a strand. The fixed rats were submerged in water bath to the depth of ensiform process with their hind legs dipped first. Sixteen hours after the submerge, the rats were brought out from the bath and their stomachs were taken out. After light fixation with a 1% formalin aqueous solution, the stomach of each animal was cut open along their greater curvature and gastric mucosa was observed through a dissecting microscope. The ulcer was evaluated on an ulcer index calculated from the following equation: […]
wherein a is the number of big ulcers more than 3 mm in diameter and b is the number of small ulcers up to 3 mm in diameter.
A test compound was orally administered as a suspension in a 1% gum arabic aqueous solution, 10 minutes before exposure to stress.

The next data set relates to acetic acid ulcer. The data set can be described thus: Action on the healing of acetic acid ulcers. The data set is classed as in vivo, Sprague-Dawley strain male rats. Particulars: oral; for Percent healing Rate / Ulcer Index (mean number ± standard deviation), product of major and minor axis: once a day for 15 days; for Ulcer Index (mean number ± standard deviation), product of major and minor axis: control 12.5 ± 6.0. The protocol: Sprague-Dawley strain male rate (8 weeks old) were etherized and their abdominal parts were cut open. A 20% acetic acid aqueous solution (0.05 ml) was injected into subserosal layer in the glandular part of stomach of each rat and the incisions were sutured.
From the fourth day after the operation, each rat was orally administered with 1-(3'-dimethylaminopropoxy)-2,4-bis(3"-methylbenzamido)-benzene in a dose of 10 mg/kg or 40 mg/kg. body weight as an aqueous solution in an equivalent molar of hydrochloric acid once a day for 15 days. On the day after the last administration, the rats were sacrificed by an overdose of diethyl ether and the stomach of each of the rats was taken out. After light fixation of the stomach with a 1% formalin solution, it was cut open along the greater curvature and the gastric mucosa was observed through a dissecting microscope. The ulcer was evaluated as the product (mm^2) of the major axis and the minor axis of the ulcer.

A further data set can be described thus: Acute toxicity in mice. The settings on record: mouse, in vivo, po.

We go through 4 compounds from patent US4092431A, “Pharmaceutical composition and method of the use thereof” (Chugai Seiyaku Kabushiki Kaisha, priority 1977, dated 1978).

In general, LD50 refers to the dose at which mortality reaches 50%. Higher therefore signals a less toxic substance.

Method for pylorus ligature ulcer: The pylorus of Sprague-Dawley strain male rats weighing 150-200 g that had abstained from food, but not water for 48 hours was ligatured under ether anethsia. Each rat was allowed to stand individually in a cage for 16 hours without food and water. At the end of this term, the rats were sacrificed by an overdose of diethyl ether. The stomach was taken out of each animal and the gastric mucosa was obserbed by the use of a dissecting microscope.
Ulcers observed in the gastric mucosa were evaluated on a scale of from 0 to 5 defined as follows.
0: No lesion was observed.
1: Hemorrhage and/or erosion were observed.
2: One to five small ulcers less than 3 mm in diameter were observed.
3: Six or more small ulcers and/or a large ulcer more than 3 mm in diameter were observed.
4: Two or more large ulcers were observed.
5: At least one perforating ulcer was observed.
A test compound was administered as an aqueous solution in an equivalent molar of hydrochloric acid in the duodenum immediately after the pylorus ligature.

As for `Cc1ccccc1C(=O)Nc1ccc(OCCCN(C)C)c(NC(=O)c2ccccc2C)c1` [1-(3'-dimethylaminopropoxy)-2,4-bis(2"-methylbenzamido)-benzene], in the data set with pylorus ligature ulcer (50 mg/kg), the “Death Rate” value came to 20%, the “Perforating Ulcers” value stood at 20%, the “Ulcer Index (mean value ± standard deviation)” value is 3.2 ± 1.3 and the “Percent Inhibition” value is 20%. In the data set with pylorus ligature ulcer (100 mg/kg or 200 mg/kg), the “inhibition of death of rats and formation of perforating ulcers” value (from here on “inhibition of death … of perforating ulcers”) was “completely inhibited the death of rats and the formation of perforating ulcers”; the “prevention of formation of gastric ulcers” value (shortened to “prevention”) was “prevented the formation of gastric ulcers on a statistically significant level”. In the data set with pylorus ligature ulcer (100 mg/kg), the “Death Rate” value worked out at 0%, the “Perforating Ulcers” value was 0%, the “Ulcer Index (mean value ± standard deviation)” value came out at 2.6 ± 0.5 and the “Percent Inhibition” value was 35%. Besides, in the data set with pylorus ligature ulcer (200 mg/kg), the “Death Rate” value is given as 0%, the “Perforating Ulcers” value came to 0%, the “Ulcer Index (mean value ± standard deviation)” value stood at 0 and the “Percent Inhibition” value is 100%. Besides, the “dose dependence of inhibiting action on ulcer formation” value with stress-induced ulcer was “inhibiting action increases as the dose level heightens”. Moreover, the “inhibition of the formation of ulcer” value in the data set on stress-induced ulcer (30 mg/kg body weight) is recorded as 50-60%. Further, in the data set with stress-induced ulcer (30 mg/kg), the “Ulcer Index (mean value ± standard deviation)” value is reported as 2.8 ± 0.8; the “Number of Ulcers/Stomach, 3 mm or larger” value turned out to be 0.6; the “Number of Ulcers/Stomach, up to 3 mm” value is listed as 23.4; the “Percent Inhibition” value was 54%. In the data set with stress-induced ulcer (45 mg/kg), the “Ulcer Index (mean value ± standard deviation)” value is given as 2.0 ± 0.6; the “Number of Ulcers/Stomach, 3 mm or larger” value is given as 0.2; the “Number of Ulcers/Stomach, up to 3 mm” value is 16.8; the “Percent Inhibition” value came out at 67%. In the data set on stress-induced ulcer (67 mg/kg), the “Ulcer Index (mean value ± standard deviation)” value was 1.0 ± 0.9; the “Number of Ulcers/Stomach, 3 mm or larger” value turned out to be 0.2; the “Number of Ulcers/Stomach, up to 3 mm” value came to 8.8; the “Percent Inhibition” value is recorded as 84%. Moreover, in the data set on stress-induced ulcer (100 mg/kg), the “Ulcer Index (mean value ± standard deviation)” value amounted to 0.4 ± 0.5; the “Number of Ulcers/Stomach, 3 mm or larger” value was 0; the “Number of Ulcers/Stomach, up to 3 mm” value worked out at 3.8; the “Percent Inhibition” value is listed as 93%.
Turning to `Cc1cccc(C(=O)Nc2ccc(OCCCN(C)C)c(NC(=O)c3cccc(C)c3)c2)c1` [1-(3'-dimethylaminopropoxy)-2,4-bis(3"-methylbenzamido)-benzene], the “Death Rate” value in the data set on pylorus ligature ulcer (50 mg/kg) is 33%; in the data set on pylorus ligature ulcer (100 mg/kg) it was 0%; with pylorus ligature ulcer (200 mg/kg) it was 0%. The “Perforating Ulcers” value in the data set on pylorus ligature ulcer (50 mg/kg) was 50%; in the data set with pylorus ligature ulcer (100 mg/kg), 0%; in the data set with pylorus ligature ulcer (200 mg/kg) it was 0%. Besides, the “Ulcer Index (mean value ± standard deviation)” value is recorded as 4.0 ± 1.1 with pylorus ligature ulcer (50 mg/kg); 2.0 ± 1.4 in the data set with pylorus ligature ulcer (100 mg/kg); 1.0 ± 1.1 in the data set with pylorus ligature ulcer (200 mg/kg); 2.6 ± 2.1 in the data set on stress-induced ulcer (30 mg/kg); 2.0 ± 1.7 with stress-induced ulcer (45 mg/kg); 1.5 ± 2.7 with stress-induced ulcer (67 mg/kg). Moreover, the “Ulcer Index (mean value ± standard deviation)” value with stress-induced ulcer (100 mg/kg) is 2.0 ± 2.1. In addition, the “Percent Inhibition” value is 0% in the data set with pylorus ligature ulcer (50 mg/kg); 50% in the data set with pylorus ligature ulcer (100 mg/kg); 75% with pylorus ligature ulcer (200 mg/kg); 57% with stress-induced ulcer (30 mg/kg); 67% in the data set on stress-induced ulcer (45 mg/kg); 75% in the data set on stress-induced ulcer (67 mg/kg). Moreover, the “Percent Inhibition” value with stress-induced ulcer (100 mg/kg) was 67%. The “inhibition of death … of perforating ulcers” value in the data set with pylorus ligature ulcer (100 mg/kg or 200 mg/kg) was “completely inhibited the death of rats and the formation of perforating ulcers”. The “prevention” value with pylorus ligature ulcer (100 mg/kg or 200 mg/kg) is “prevented the formation of gastric ulcers on a statistically significant level”. In addition, the “dose dependence of inhibiting action on ulcer formation” value with stress-induced ulcer is listed as “inhibiting action increases as the dose level heightens”. Further, the “inhibition of the formation of ulcer” value with stress-induced ulcer (30 mg/kg body weight) is reported as 50-60%. In addition, the “Number of Ulcers/Stomach, 3 mm or larger” value with stress-induced ulcer (30 mg/kg) is listed as 0.5; in the data set with stress-induced ulcer (45 mg/kg), 1.0; in the data set with stress-induced ulcer (67 mg/kg), 0.8; in the data set with stress-induced ulcer (100 mg/kg), 0.8. Further, the “Number of Ulcers/Stomach, up to 3 mm” value with stress-induced ulcer (30 mg/kg) came out at 21.4; with stress-induced ulcer (45 mg/kg), 8.7; in the data set on stress-induced ulcer (67 mg/kg), 7.3; in the data set with stress-induced ulcer (100 mg/kg), 10.6. For the same compound, the “ulcer index in comparison with control” value in the data set on acetic acid ulcer (10 mg/kg and 40 mg/kg) is on record as “on a statistically significant lower level in comparison with those of the control”. The “Percent healing Rate” value in the data set with acetic acid ulcer (10 mg/kg) is listed as 45%; in the data set on acetic acid ulcer (40 mg/kg), 42%. Further, the “Ulcer Index (mean number ± standard deviation), product of major and minor axis” value in the data set with acetic acid ulcer (10 mg/kg) was found to be 6.9 ± 5.6 mm^2; in the data set with acetic acid ulcer (40 mg/kg) it was 7.2 ± 5.1 mm^2.
Take `Cc1ccccc1C(=O)Nc1ccc(C(=O)NCCCN(C)C)c(NC(=O)c2ccccc2C)c1` [1-[N-(3'-dimethylaminopropyl)-carbamoyl]-2,4-bis(2"-methylbenzamido)-benzene]: in the data set with pylorus ligature ulcer (200 mg/kg), the “inhibition of death … of perforating ulcers” value was “completely inhibited the death of rats and the formation of perforating ulcers”; the “prevention” value was “prevented the formation of gastric ulcers on a statistically significant level”; the “Death Rate” value amounted to 0%; the “Perforating Ulcers” value amounted to 0%. Also, in the data set on pylorus ligature ulcer (200 mg/kg), the “Ulcer Index (mean value ± standard deviation)” value came out at 1.4 ± 1.4 and the “Percent Inhibition” value came out at 65%. Moreover, the “inhibition of the formation of ulcer” value with stress-induced ulcer (100 mg/kg body weight) is 50-60%. Also, in the data set with stress-induced ulcer (100 mg/kg), the “Ulcer Index (mean value ± standard deviation)” value was found to be 3.0 ± 1.0; the “Number of Ulcers/Stomach, 3 mm or larger” value was found to be 0.8; the “Number of Ulcers/Stomach, up to 3 mm” value is listed as 23.4; the “Percent Inhibition” value is 51%. Further, the median lethal dose (LD50) in the data set “Acute toxicity in mice” is over 11000 mg/kg.
On to `Cc1cccc(C(=O)Nc2ccc(C(=O)NCCCN(C)C)c(NC(=O)c3cccc(C)c3)c2)c1` [1-[N-(3'-dimethylaminopropyl)-carbamoyl]-2,4-bis(3"-methylbenzamido)-benzene], for which, in the data set with pylorus ligature ulcer (200 mg/kg), the “inhibition of death … of perforating ulcers” value is “completely inhibited the death of rats and the formation of perforating ulcers”; the “prevention” value is reported as “prevented the formation of gastric ulcers on a statistically significant level”; the “Death Rate” value is 0%; the “Perforating Ulcers” value was found to be 0%. In addition, in the data set with pylorus ligature ulcer (200 mg/kg), the “Ulcer Index (mean value ± standard deviation)” value is on record as 2.5 ± 1.4 and the “Percent Inhibition” value came to 38%. Besides, the “inhibition of the formation of ulcer” value in the data set with stress-induced ulcer (100 mg/kg body weight) is recorded as 50-60%. In addition, in the data set with stress-induced ulcer (100 mg/kg), the “Ulcer Index (mean value ± standard deviation)” value is listed as 2.4 ± 2.1; the “Number of Ulcers/Stomach, 3 mm or larger” value came to 0.6; the “Number of Ulcers/Stomach, up to 3 mm” value is 17.6; the “Percent Inhibition” value was 61%.
